{
  "source": "patent USRE31836E",
  "about": "“Pharmaceutical and dietary composition” (priority 1984, dated 1985)",
  "key": {"PG formation": {"system": "PG formation", "conditions": "cited from earlier work"}, "[1]": {"conditions": "cited from earlier work"}, "NZB/W mouse": {"system": "NZB/W mouse", "assay": "NZB/W mouse, animal model for Sjogren's syndrome", "format": "in vivo"}, "Sjogren's syndrome": {"system": "Sjogren's syndrome", "conditions": "vitamin C 7.5 g/day for a year; person", "method": "Associated with these disorders were brittle, frequently cracking nails and hypersensitivity of the hands to soaps and detergents. […] 50 mg/day pyridoxine (desirable for normal EFA metabolism) and 6×0.6 ml Evening Primrose oil capsules per day were added to the regime."}, "[2]": {"system": "conversion of DGLA to 1 series PGs (human platelets)", "assay": "tissue or blood", "format": "cell-based", "conditions": "for effect on formation of 1 series PGs from DGLA: human platelets; for activity at 0.018 µg/mL / activity at 18 µg/mL: Homo sapiens, Platelet; for behaviour of treated normal platelets (PGE1 from DGLA): normal platelets compared with schizophrenic platelets", "method": "(§1) The method is given in detail later herein but briefly human platelets are incubated with radioactive DGLA or arachidonic acid. The PGs produced during incubation are extracted by conventional means and separated by thin layer chromatography, and the amount of radioactivity appearing in each PG or related substance is counted. PGE 1, PGF 1α and thromboxane B1 from DGLA, and PGE 2, PGF 2α and thromboxane B2 from AA are estimated.\n(§2) One day expired (2 days old) human platelets were obtained and used within 48 hours of expiration. One unit was centrifuged at 1000 g for 15 minutes and the supernatent drawn off. The platelet pellet was resuspended in Tris-NaCl-EDTA buffer, made up of 0.15 M NaCl, 0.15 M Tris HCl at pH 7.4 and 0.077 M NaEDTA (90:8:2 v/v/v). The platelets were recentrifuged, the supernatant removed and the pellet resuspended in Krebs-Henseleit buffer (without calcium) at pH 7.4. The washed platelets suspension contained about 1-2% red blood cells. All glassware used in the preparation of the platelets was siliconized.\nFour equal sized 1 ml aliquots of the platelet suspension, containing 10^9 platelets/ml were incubated with e.g. 0.5 μCi ^14 C-DGLA for five minutes. At the beginning of the incubation the material under test was added to the suspensions. The reaction was stopped after five minutes by addition of 1/10 volume of 10% formic acid. The suspension was then extracted three times with ethyl acetate and the fractions pooled and dried under vacuum. The extract was then taken up with 5 ml chloroform/methanol (2/1, v/v). Recovery of radioactive material in the extract was checked by taking 50 μl of the chloroform/methanol and counting by liquid scintillation.\nThe chloroform/methanol extract was then reduced in volume to 1 ml under dry prepurified nitrogen. Thin layer chromatography was carried out on 500 μg precoated, prescored silica gel G Uniplates (Analtech). Plates were activated by heating to 100° C. for 1 hour immediately prior to use. The solvent system was chloroform:methanol:acetic acid:water (90:8:1:0:8). Reference compounds (PGsE1 and F1α and thromboxane B1) were run at the same time and visualized by phosphomolybdic acid spray followed by brief heating. The bands on the plates corresponding to the reference PGE1, PFG1α and TXB1 were scraped off and eluted with 20 ml acetone. Each elution was then evaporated to dryness and counted by liquid scintillation (Beckman 100 LS counter).\nThree experiments were performed with DGLA and three with AA."}, "opiate receptor": {"system": "opiate receptor", "conditions": "cited from earlier work"}, "[3]": {"system": "conversion of AA to 2 series PGs (human platelets)", "format": "cell-based", "method": "as §1, §2\nFour equal sized 1 ml aliquots of the platelet suspension, containing 10^9 platelets/ml were incubated with e.g. 0.5 μCi ^14 C-DGLA for five minutes. […]\nThe chloroform/methanol extract was then reduced in volume to 1 ml under dry prepurified nitrogen. […] Each elution was then evaporated to dryness and counted by liquid scintillation (Beckman 100 LS counter). […]"}, "[4]": {"conditions": "read-out: PGE1 formation (precursor DGLA), percentage of control counts"}, "[5]": {"conditions": "read-out: TXB1 formation (precursor DGLA), percentage of control counts"}},
  "note": "Entries after “also recorded” stand apart in the source; their conditions may differ. Like-named read-outs stand apart in the source and are kept apart here.",
  "data": [
    {"compound": "CCO", "note": "[Ethyl alcohol, ethyl alcohol]", "values": [
      {"measurement": "effect on formation of thromboxane B2", "setting": "PG formation; extremely high levels of ethanol, conversion of AA", "value": "can block the formation of thromboxane B2"},
      {"measurement": "concentration of alcohol in human plasma at which signs of mild intoxication first appear", "setting": "[1]; human plasma", "value": "20-30 mg %"},
      {"measurement": "concentration which produces \"blind drunkenness\"", "setting": "[1]; in vivo", "value": 300, "unit": "mg %"}
    ]},
    {"compound": "CCCCC[C@H](O)/C=C/[C@H]1[C@H](O)CC(=O)[C@@H]1CCCCCCC(=O)O", "note": "[PGE1]", "values": [
      {"measurement": "effect on immunological abnormalities of the strain", "setting": "NZB/W mouse", "value": "can correct many of the immunological abnormalities of the strain"}
    ]},
    {"compound": "O=C1O[C@H]([C@@H](O)CO)C(O)=C1O", "note": "[Vitamin C, ascorbic acid]", "values": [
      {"measurement": "effect on PG formation", "setting": "PG formation; high concentrations of vitamin C, reports in the literature", "value": "both enhancing and reducing PG formation"},
      {"measurement": "effect on well-being, dry eyes and mouth", "setting": "Sjogren's syndrome", "value": "subjective sense of well-being and some slight improvement in the dry eyes and mouth"}
    ]},
    {"compound": "CN1CC[C@@]23CCCC[C@@H]2[C@@H]1Cc1ccc(O)cc13", "note": "[d-levorphanol]", "values": [
      {"measurement": "effect on conversion of DGLA to PGE1", "setting": "[2]; d-isomer of levorphanol", "value": "no such effect"},
      {"measurement": "effect on formation of 1 series PGs from DGLA", "setting": "[2]", "value": "not shown by d-levorphanol"},
      {"measurement": "binding to and activation of the opiate receptor", "setting": "opiate receptor", "value": "does not"},
      {"measurement": "binding to and activation of the opiate receptor", "setting": "opiate receptor; listed as d-isomer of levorphanol", "value": "devoid of opiate activity"}
    ]},
    {"compound": "CN1CC[C@]23CCCC[C@H]2[C@H]1Cc1ccc(O)cc13", "note": "[l-levorphanol]", "values": [
      {"measurement": "effect on formation of 2 series PGs from AA", "setting": "[3]", "value": "no effect on production of 2-series PGs from AA; also recorded: without blocking the formation of 2 series PGs from AA"},
      {"measurement": "activity at 0.018 µg/mL", "setting": "[2]; [4]", "value": 23, "unit": "%"},
      {"measurement": "activity at 18 µg/mL", "setting": "[2]; [4]", "value": 72, "unit": "%"},
      {"measurement": "activity at 0.018 µg/mL", "setting": "[2]; [5]", "value": 20, "unit": "%"},
      {"measurement": "activity at 18 µg/mL", "setting": "[2]; [5]", "value": 76, "unit": "%"},
      {"measurement": "effect on formation of 1 series PGs from DGLA", "setting": "[2]", "value": "reduced formation of 1-series PGs; also recorded: able to block the formation of 1 series PGs from DGLA"},
      {"measurement": "effect on conversion of DGLA to PGE1", "setting": "[2]; l-levorphanol 100 μg/ml", "value": "inhibiting conversion of DGLA to PGE1"},
      {"measurement": "behaviour of treated normal platelets (PGE1 from DGLA)", "setting": "[2]", "value": "behave like schizophrenic platelets"},
      {"measurement": "imitation of schizophrenic defect of conversion of DGLA to PGE1 in normal platelets", "setting": "[2]; normal platelets incubated with l-levorphanol", "value": "can be limited in normal platelets by incubation with l-levorphanol"},
      {"measurement": "binding to and activation of the opiate receptor", "setting": "opiate receptor", "value": "binds to and activates the opiate receptor"}
    ]},
    {"compound": "CCCCC/C=C\\C/C=C\\C/C=C\\CCCCC(=O)O", "note": "[γ-linolenic acid]", "values": [
      {"measurement": "effect on immunological abnormalities of the strain", "setting": "NZB/W mouse", "value": "can correct many of the immunological abnormalities of the strain"}
    ]},
    {"compound": "β-endorphin: natural opioid (YGGFMTSEKSQTPLVTLFKNAIIKNAYKKGE; Beta-endorphin; UniProt P01189 237-267, looked up)", "values": [
      {"measurement": "effect on formation of 1 series PGs from DGLA", "setting": "[2]", "value": "effect similar to levorphanol"},
      {"measurement": "behaviour of treated normal platelets (PGE1 from DGLA)", "setting": "[2]", "value": "behave like schizophrenic platelets"}
    ]}
  ]
}
